Source: PubChem BioAssay (NCI)
Values joined by “and” are separate entries in the source; they are usually repeats but may differ in a detail not shown here. Equal values may be shown once.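 48-hour exposure; five concentrations; linearly interpolated endpoints. Abbreviation: GI50, concentration required for 50% inhibition of growth. TGI is the concentration that stops growth completely.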

Columns and labels:
Test in all cases: NCI-60 cell line screen, 48 h
[1] = tested on: OVCAR-8 ovarian
[2] = tested on: HOP-62 NSCLC
[3] = tested on: MOLT-4 leukemia
[4] = tested on: SR leukemia
[5] = tested on: UO-31 renal
[6] = tested on: HCT-15 colon
[7] = tested on: 786-0 renal
[8] = tested on: HS 578T breast
[9] = tested on: SK-OV-3 ovarian
[10] = tested on: MCF7 breast
[11] = tested on: ACHN renal
[12] = tested on: SNB-75 CNS
[13] = tested on: SW-620 colon
[14] = tested on: COLO 205 colon
[15] = tested on: KM12 colon
[16] = tested on: SK-MEL-2 melanoma
[17] = tested on: SN12C renal
[18] = tested on: T-47D breast
[19] = tested on: NCI-H226 lung
[20] = tested on: OVCAR-4 ovarian
[21] = tested on: MDA-N
[22] = tested on: SF-268 CNS
[23] = tested on: NCI-H522 lung
[24] = tested on: OVCAR-3 ovarian
[25] = tested on: CCRF-CEM leukemia
[26] = tested on: NCI-H23 lung
[27] = tested on: HOP-92 NSCLC
[28] = tested on: SK-MEL-5 melanoma
[29] = tested on: OVCAR-5 ovarian
[30] = tested on: RXF 393 renal
[31] = tested on: SF-295 CNS
[32] = tested on: UACC-62 melanoma
[33] = tested on: PC-3 prostate
[34] = tested on: SF-539 CNS
[35] = tested on: NCI-H460 lung
[36] = tested on: K-562 leukemia
[37] = tested on: BT-549 breast
[38] = tested on: HL-60(TB) leukemia
[39] = tested on: SK-MEL-28 melanoma
[40] = tested on: UACC-257 melanoma
[41] = tested on: HCC-2998 colon
[42] = tested on: DU-145 prostate
[43] = tested on: TK-10 renal
[44] = tested on: MDA-MB-435
[45] = tested on: HT29 colon
[46] = tested on: LOX IMVI melanoma
[47] = tested on: M14 melanoma
[48] = tested on: SNB-19 CNS
[49] = tested on: HCT-116 colon
[50] = tested on: MALME-3M melanoma
[51] = tested on: EKVX NSCLC
[52] = tested on: A498 renal
[53] = tested on: IGROV1 ovarian
[54] = tested on: MDA-MB-231 breast
[55] = tested on: CAKI-1 renal
[56] = tested on: U251 CNS
[57] = tested on: A549 NSCLC
[58] = tested on: RPMI-8226 leukemia
[59] = tested on: NCI/ADR-RES ovarian

SMILES: Nc1ccccc1NC(=O)c1ccc(CNC(=O)OCc2cccnc2)cc1
- TGI [1]: > 100 µM
- TGI [2]: > 90 µM
- GI50 [3]: 1930 nM
- TGI [3]: > 85 µM
- GI50 [4]: 533 nM
- TGI [4]: > 100 µM
- GI50 [5]: 1170 nM
- TGI [5]: > 100 µM and 20.3 µM
- GI50 [6]: 8.47 µM
- TGI [6]: > 100 µM
- GI50 [7]: 4.96 µM
- TGI [7]: > 90.9 µM
- GI50 [8]: 2330 nM
- TGI [8]: > 100 µM
- GI50 [9]: 2750 nM
- TGI [9]: > 100 µM
- GI50 [10]: 637 nM
- TGI [10]: > 100 µM
- GI50 [11]: 2340 nM
- TGI [11]: > 77.7 µM and 25.7 µM
- TGI [12]: > 100 µM
- GI50 [13]: 1300 nM
- TGI [13]: 34.5 µM and > 100 µM
- GI50 [14]: 2010 nM
- TGI [14]: 8.37 µM and 3.03 µM
- GI50 [15]: 4.31 µM
- TGI [15]: > 100 µM
- GI50 [16]: 1100 nM
- TGI [16]: 15 µM and 3.2 µM
- GI50 [17]: 9.39 µM
- TGI [17]: > 100 µM
- GI50 [18]: 462 nM
- TGI [18]: > 100 µM
- GI50 [19]: 604 nM
- TGI [19]: 16.9 µM and 5.73 µM
- GI50 [20]: 1310 nM
- TGI [20]: > 100 µM
- TGI [21]: 12.4 µM
- GI50 [22]: 1860 nM
- TGI [22]: 25 µM and > 74.7 µM
- GI50 [23]: 698 nM
- TGI [23]: 7.41 µM and > 27.9 µM
- GI50 [24]: 1740 nM
- TGI [24]: 11.5 µM and 14.8 µM
- GI50 [25]: 1940 nM
- TGI [25]: > 100 µM and 21.7 µM
- GI50 [26]: 3.23 µM
- TGI [26]: > 89.4 µM and 14.9 µM
- GI50 [27]: 38.2 nM
- GI50 [28]: 743 nM
- TGI [28]: 2310 nM and 2300 nM
- GI50 [29]: 1050 nM
- GI50 [30]: 1490 nM
- TGI [30]: 6.31 µM and 27.6 µM
- GI50 [31]: 2570 nM
- TGI [31]: > 39.8 µM and 16.6 µM
- GI50 [32]: 278 nM
- TGI [32]: 1.77 µM and 4.81 µM
- TGI [33]: > 100 µM
- GI50 [34]: 3.19 µM
- TGI [34]: 78.7 µM and > 52.1 µM
- GI50 [35]: 830 nM
- TGI [35]: > 100 µM
- GI50 [36]: 505 nM
- TGI [36]: > 100 µM
- GI50 [37]: 4.14 µM
- TGI [37]: > 100 µM
- GI50 [38]: 847 nM
- TGI [38]: 26.6 µM and > 22.5 µM
- GI50 [39]: 663 nM
- TGI [39]: 5.94 µM and > 45.4 µM
- TGI [40]: > 29 µM
- TGI [41]: 5.44 µM and 9.79 µM
- GI50 [42]: 2260 nM
- TGI [42]: > 100 µM
- GI50 [43]: 289 nM
- TGI [43]: 38.8 µM and > 100 µM
- GI50 [44]: 956 nM
- TGI [44]: 14.8 µM and > 33.1 µM
- GI50 [45]: 1040 nM
- GI50 [46]: 1060 nM
- TGI [46]: 8.67 µM and 5.94 µM
- GI50 [47]: 2350 nM
- TGI [47]: > 100 µM and 15.5 µM
- GI50 [48]: 6.33 µM
- TGI [48]: > 100 µM and 75.2 µM
- GI50 [49]: 798 nM
- TGI [49]: > 92 µM and 11.6 µM
- GI50 [50]: 577 nM and 267 nM
- TGI [50]: > 23.6 µM and 2.39 µM
- GI50 [51]: 3.26 µM
- TGI [51]: > 100 µM
- GI50 [52]: 361 nM
- TGI [52]: 2.98 µM and 4.14 µM
- GI50 [53]: 3.95 µM
- TGI [53]: > 61.6 µM and 36.2 µM
- GI50 [54]: 13.8 µM
- TGI [54]: > 100 µM and 25.6 µM
- GI50 [55]: 1170 nM
- TGI [55]: 14.1 µM and > 59.5 µM
- GI50 [56]: 2030 nM
- TGI [56]: > 39.5 µM and 5.74 µM
- TGI [57]: > 100 µM
- GI50 [58]: 895 nM
- TGI [58]: > 29.5 µM and 4.54 µM
- GI50 [59]: 2380 nM
- TGI [59]: > 67.4 µM

SMILES: O=C(Nc1sccc1S(=O)(=O)c1ccc(Cl)cc1)c1ccc(Cl)cc1
- TGI [1]: > 100 µM
- TGI [2]: > 100 µM
- TGI [3]: > 100 µM
- TGI [4]: > 100 µM
- TGI [5]: > 100 µM
- TGI [6]: > 100 µM
- TGI [7]: > 100 µM
- TGI [8]: > 100 µM
- TGI [9]: > 100 µM
- TGI [10]: > 100 µM
- TGI [11]: > 100 µM
- TGI [12]: > 100 µM
- TGI [13]: > 100 µM
- TGI [14]: > 100 µM
- TGI [15]: > 100 µM
- TGI [16]: > 100 µM
- TGI [17]: > 100 µM
- TGI [18]: > 100 µM
- TGI [19]: > 100 µM
- TGI [20]: > 100 µM
- TGI [21]: > 100 µM
- TGI [22]: > 100 µM
- TGI [23]: > 100 µM
- TGI [24]: > 100 µM
- TGI [25]: > 100 µM
- TGI [26]: > 100 µM
- TGI [27]: > 100 µM
- TGI [28]: > 100000 nM
- TGI [29]: > 100 µM
- TGI [30]: > 100 µM
- TGI [31]: > 100 µM
- TGI [32]: > 100 µM
- TGI [33]: 90.4 µM
- TGI [34]: > 100 µM
- TGI [35]: > 100 µM
- TGI [36]: > 100 µM
- TGI [37]: > 100 µM
- TGI [38]: > 100 µM
- TGI [39]: > 100 µM
- TGI [40]: > 100 µM
- TGI [41]: > 100 µM
- TGI [42]: > 100 µM
- TGI [43]: > 100 µM
- TGI [44]: > 100 µM
- TGI [45]: > 100 µM
- TGI [46]: > 100 µM
- TGI [47]: > 100 µM
- TGI [48]: > 100 µM
- TGI [49]: > 100 µM
- TGI [50]: > 100 µM
- TGI [51]: > 100 µM
- TGI [52]: > 100 µM
- TGI [53]: > 100 µM
- TGI [54]: > 100 µM
- TGI [55]: > 100 µM
- TGI [56]: > 100 µM
- TGI [57]: > 100 µM
- TGI [58]: > 100 µM
- TGI [59]: > 100 µM
